Source: patent publication US6610489B2, “Pharmacogenomics and identification of drug targets by reconstruction of signal transduction pathways based on sequences of accessible regions” (Sangamo BioSciences, Inc., priority 2000, dated 2003)

Key:
p16 gene = conditions: HCT15 cells, in which the p16 CpG island is methylated and the p16 gene is inactive; cited from earlier work
[1] = test system: p16 CpG island sequences associated with acetylated histone H3 in HCT15 cells; assay: Chromatin immunoprecipitation with anti-acetylated histone H3 antibody, real-time quantitative PCR (Taqman); assay type: cell-based, human; conditions: HCT15 cells treated with 2 μM 5-azacytidine during three-day growth, compared to untreated cells; VEGF gene region as control sequence
Description: In this example, chromatin immunoprecipitation (ChIP) was used to enrich a population of DNA fragments comprising regulatory sequences for the p16 tumor suppressor gene, by virtue of their association with acetylated histone H3. A CpG island is located in the p16 gene (GenBank Accession No. AF022809), between about 30 nucleotide pairs upstream, and about 590 nucleotide pairs downstream of the transcriptional startsite identified by Hara et al. (1996) Mol. Cell. Biol. 16:859-867. One form of regulation of genes associated with CpG islands is through methylation of C residues within the CpG island. […]
Untreated and 5-azacytidine-treated HCT15 cells were analyzed by chromatin immunoprecipitation to test for a specific association of acetylated H3 with unmethylated (i.e., active) CpG island sequences. […] Then, in both portions, formaldehyde crosslinks were reversed, DNA was purified, and the purified DNA was analyzed by means of a real-time quantitative PCR assay, known colloquially as “Taqman®.” The DNA was analyzed for the relative proportion of two sequences: (1) a region adjacent to the CpG island located in the 5′-untranslated region of the p16 gene (see above), and (2) a portion of the VEGF gene corresponding to the region from 2324 to 2246 nucleotide pairs upstream of the transcription initiation site.

Nc1ncn([C@@H]2O[C@H](CO)[C@@H](O)[C@H]2O)c(=O)n1 [5-azacytidine]
p16 transcription (p16 gene): activation of p16 transcription
enrichment of p16 CpG island sequences associated with acetylated H3 [1]: approximately 10 fold
